{"source": "patent US11040081B2", "about": "(CORPORATION GENACOL CANADA INC., priority 2016, dated 2021)", "key": {"[1]": {"tested_on": "patients diagnosed with osteoarthritis of the knee", "experiment": "Filipino study: WOMAC osteoarthritis index, Likert version", "assay_type": "in vivo, human", "details": "Likert 0-4", "experimental": "Experimental, randomized, single blind observer, open-labeled, controlled trial. […] Group A subjects were given the oral collagen supplement (Genacol®, Blainville, Qc, Canada) 400 mg/capsule, 3 capsules daily at bedtime for 6 months, and a topical analgesic needed for knee pain. Group B, the control group, received the standard treatment using an oral non-steroidal inflammatory drug, in the form of aceclofenac 100 mg/tablet, 1 tablet twice a day for 5 days initially then as needed for pain, and topical analgesic (ketoprofen gel) to be applied twice a day as needed for pain. Both groups underwent physical therapy three times a week for two weeks. Heating modalities, range of motion exercises, and muscle strengthening exercises were administered on each therapy session. Follow up evaluation was done every month. On the sixth month of follow up, repeat radiography evaluation of the involved knee was done to determine if there were any changes in the knee joint. Compliance to the study medication was determined by asking the patient on their missed doses and by counting the remaining unconsumed capsules. Symptoms of osteoarthritis were assessed using the Western Ontario and McMaster Universities (WOMAC) osteoarthritis index, a validated and disease-specific questionnaire separately addressing severity of joint pain (5 questions), stiffness (2 questions), and limitation of physical function (17 questions) in the 48 hours before assessment. The Likert Version of WOMAC is rated on an ordinal scale of 0 to 4 with lower scores indicating lower levels of symptoms or physical disability. […] There is also an index score or global score, which is most commonly calculated by summating the scores for the 3 subscales. The questionnaire is self administered and takes 5 to 10 minutes to complete. Data was presented as mean±SD or frequency and percent distribution whichever was applicable. Chi square test was performed to indicate any significant difference in the distribution of male and female patients between the two groups while t-test was performed to check for any significant difference in characteristics that were continuous variables. Paired sample t-test was used to compare the significance in change in values (WOMAC and medial knee joint space) of the two groups from baseline to the sixth month follow up."}, "[2]": {"tested_on": "patients diagnosed with osteoarthritis of the knee", "experiment": "Filipino study: radiographic medial knee joint space width", "assay_type": "in vivo, human", "details": "weight-bearing anteroposterior radiograph", "experimental": "Group A subjects were given the oral collagen supplement (Genacol®, Blainville, Qc, Canada) 400 mg/capsule, 3 capsules daily at bedtime for 6 months, and a topical analgesic needed for knee pain. Group B, the control group, received the standard treatment using an oral non-steroidal inflammatory drug, in the form of aceclofenac 100 mg/tablet, 1 tablet twice a day for 5 days initially then as needed for pain, and topical analgesic (ketoprofen gel) to be applied twice a day as needed for pain. Both groups underwent physical therapy three times a week for two weeks. Heating modalities, range of motion exercises, and muscle strengthening exercises were administered on each therapy session. Follow up evaluation was done every month. On the sixth month of follow up, repeat radiography evaluation of the involved knee was done to determine if there were any changes in the knee joint. Compliance to the study medication was determined by asking the patient on their missed doses and by counting the remaining unconsumed capsules. […] Using a standard ruler in millimeters, one experienced radiologist who was blinded as to the treatment of each subject measured the narrowest medial compartment of the tibiofemoral joint of each radiographed knee done at the start of the study. […]"}}, "data": [{"smiles": "O=C(O)COC(=O)Cc1ccccc1Nc1c(Cl)cccc1Cl", "note": "[Group B, aceclofenac]", "values": [{"measurement": "WOMAC Score, mean", "setting": "[1]; 2nd ff-up (monthly follow-up)", "value": 2.42}, {"measurement": "WOMAC Score, mean", "setting": "[1]; 3rd ff-up (monthly follow-up)", "value": 2.29}, {"measurement": "WOMAC Score, mean", "setting": "[1]; 4th ff-up (monthly follow-up)", "value": 2.26}, {"measurement": "WOMAC Score, mean", "setting": "[1]; 5th ff-up (monthly follow-up)", "value": 2.17}, {"measurement": "WOMAC Score, mean", "setting": "[1]; 6th ff-up (sixth month)", "value": 1.87}, {"measurement": "WOMAC Score, mean", "setting": "[1]; Baseline, Group A n=55, Group B n=58", "value": 2.91}, {"measurement": "Median Knee Joint Space, mean", "setting": "[2]; 6th ff-up (sixth month)", "value": 3.8, "unit": "mm"}, {"measurement": "Median Knee Joint Space, mean", "setting": "[2]; Baseline", "value": 4.3, "unit": "mm"}]}]}
